# Reference: PMC6013238, “Development of novel NEMO-binding domain mimetics for inhibiting IKK/NF-κB activation” (PLoS Biology, 2018)
# Where “and” joins values, the source holds several entries; their conditions need not be identical. Equal entries are not always repeated.
# Test system: mdx mice
# Experiment: Chronic treatment of mdx mice, qRT-PCR of eMyHC and Pax7 in TA muscle
# Assay type: in vivo, mouse
# Details: Fig 7D, SR 30 mg/kg, 8K-NBD 10 mg/kg, 4 wk, single mice
# Description: Fig 7 NBD mimetics improve muscular pathology and grip strength in mdx mice. (A) Shown is the treatment regimen with NBD mimetics in mdx mice. (B) Hematoxylin–eosin staining of TA muscle from 7-wk-old, treated or untreated mdx mice. Images were taken at magnification of 20×. Representative images were shown for each treatment group. […] (E) TA muscle from 7-wk-old, treated or untreated mdx mice was stained with laminin by IHC to outline myofibers. Overall images of TA muscle were shown on the left side, and the inset panel images were shown on the right side. (F) Quantitation of minimum Feret diameter in centrally and noncentrally nucleated myofibers. (G) Forelimb force determined by grip strength test. […] Underlying data can be found in S1 Data. eMyHC, embryonic myosin heavy chain; IHC, immunohistochemistry; NBD, NEMO-binding domain; NEMO, NF-κB essential modulator; Pax7, paired box protein 7; qRT-PCR, quantitative real-time polymerase chain reaction; TA, tibialis anterior.
# To determine whether SR12343 and SR12460 improve muscle pathology, TA muscle was stained with hematoxylin–eosin to assess inflammatory infiltration, necrosis, central nucleation, and fibrosis. […] To further quantitate the extent of inflammation in mdx muscle tissues, diaphragm and TA muscle were immunostained for cluster of differentiation 68 (CD68), a macrophage marker. […]
structure (smiles),measurement,value
O=C(CNc1ccc(Cl)cn1)NCCc1cccc(Br)c1 [SR12343],Pax7 mRNA in TA muscle (qRT-PCR),1.512 and 1.485 and 1.5466 and 1.253 and 1.1889 and 1.394
